Results taken from patent publication US10233205B2, “Magnetic resonance imaging contrast agent capable of detecting hydrogen peroxide and reducing reactive oxygen species” (Auburn University, priority 2015, dated 2019).

What was measured:
[1] = Superoxide scavenging, hypoxanthine-xanthine oxidase / lucigenin luminescence; type: biochemical; conditions: 50 mM Tris-HCl pH 8.0
Protocol: Superoxide was produced in situ from a reaction between xanthine and xanthine oxidase. The subsequent reaction of the O2^− with lucigenin provided a spectroscopic signal that can be used to provide a qualitative measure of an anti-oxidant's ability to degrade O2^−. The copper/zinc superoxide dismutase isolated from bovine erythrocytes (0.001-100 U/ml, Calbiochem) was used as a positive control. The assay was carried out in a total volume of 1 mL containing 50 mM tris (pH 8.0), hypoxanthine (50 μM), xanthine oxidase (0.005 U/ml, Calbiochem) and dark adapted lucigenin (5 μM) in the presence of a complex (0.1 nM-10 μM) or their vehicle. Reactions were carried out at room temperature and were initiated by the addition of xanthine oxidase to the hypoxanthine-containing solution. Luminescence was measured using a TD-20/20 (Turner Designs) luminometer and expressed as relative light units (RLU). Luminescence was measure for four 10 s integrations after an initial delay of 3 s. The four RLU values were averaged, and each concentration was expressed as a percent of that produced in the presence of vehicle. Each assay data point was performed in duplicate and assays were repeated three times.
Superoxide was generated using a hypoxanthine-xanthine oxidase reaction and detected using the chemiluminescent probe lucigenin. Reactions were carried out in 50 mM Tris-HCl (pH 8.0) containing either 1, 2, or Cu/Zn SOD from bovine erythrocytes (insert). Data for the various concentrations of 1, 2, and SOD are expressed as a percentage of luminescence in the presence of vehicle.
The ability of 3 to degrade superoxide was tested using a standard technique that uses the reaction between xanthine oxidase and xanthine to generate O2^− and a subsequent reaction with the chemiluminescent probe lucigenin to detect it. Reactions were carried out in 50 mM Tris-HCl (pH 8.0). Data for the various concentrations of Mn(II) complex are expressed as a percentage of luminescence in the presence of vehicle.

H9c2 cells = assay: Cytotoxicity, CyQUANT cell number; type: cell-based; parameters: dose tolerated by H9c2 cells: unit not given here
Protocol: H9c2 cells were obtained from the American Tissue Type Collection (Manassas, Va., USA) and grown at 37° C. with 95% humidity and 5% CO2. Cells were grown in Dulbecco's modified eagles medium (DMEM) supplemented with 10% fetal bovine serum. Experiments were performed at 70-80% confluence. All experiments were performed in DMEM in the absence of fetal bovine serum. To determine the cytotoxic effects of 1 and 2, the H9c2 cells were exposed to increasing concentrations of these reagents or their vehicle in DMEM for either 4 or 24 h. The cell number was assessed using the CyQUANT Cell Proliferation Assay Kit (Life Technologies Corporation, Carlsbad, Calif.) per manufacturer's instructions. Cell number was expressed as a percentage of that measured for the vehicle-treated cells. Values are expressed as mean and SEM and represent three experiments performed in triplicate.
The toxicity of 3 was tested using H9c2 cells in order to facilitate comparison to that of 1. H9c2 cells were obtained from the American Tissue Type Collection (Manassas, Va., USA) and grown at 37° C. with 95% humidity and 5% CO2. Cells were grown in Dulbecco's modified eagles medium (DMEM) supplemented with 10% fetal bovine serum. Experiments were performed at 70-80% confluence. To determine the cytotoxic effects of 3, H9c2 cells were exposed to increasing concentrations of 3 ([…]) or its vehicle in DMEM for 4 or 24 hr. Cell number was assessed using the CyQUANT Cell Proliferation Assay Kit (Life Technologies Corporation, Carlsbad, Calif.) per manufacturer's instructions. Cell number was expressed as percentage of the vehicle-treated cells. Values are expressed as mean and standard deviation and represent 2-4 experiments performed in triplicate. The bars marked with an * display a significant difference from the vehicle-treated cell number for corresponding time period (p<0.05).

Compound | superoxide scavenging [1] | H9c2 cells surviving (H9c2 cells; 10 μM, 24 h) | concentration without cell death / within error of control (H9c2 cells; 4 h) [µM] | dose tolerated by H9c2 cells (H9c2 cells; 4 h) | concentration without impact on H9c2 viability (H9c2 cells; 24 h) [µM] | dose tolerated by H9c2 cells (H9c2 cells; 24 h)
CC#N.O=S(=O)([O-])C(F)(F)F.O=S(=O)([O-])C(F)(F)F.[Mn+2].[O-]c1ccc(O)cc1CN(CCN(Cc1ccccn1)Cc1ccccn1)Cc1ccccn1 [Complex 1, Acetonitrilo(N-(2,5-dihydroxy-benzyl)-N,N′,N′-tris(2-pyridinylmethyl)-1,2-ethanediamine)manganese(II) triflate] | successfully intercepts O2^− | less than 50% | 10 | 10 | 1.0 | 1.0
CC#N.Cc1ccc(O)c(CN(CCN(Cc2ccccn2)Cc2ccccn2)Cc2ccccn2)c1.[Mn+2].[O-][Cl+3]([O-])([O-])[O-].[O-][Cl+3]([O-])([O-])[O-] [Complex 2, reference compound] | successfully intercepts O2^− | – | – | 10 | – | –
cis-Dibromo(N,N′-bis(2,5-dihydroxybenzyl)-N,N′-bis(2-pyridinylmethyl)-1,2-ethanediamine)manganese(II) [Complex 3] | successfully intercepts O2^− | – | 50 | – | 10 | –
